One assay deals with Adenosine receptor A2a (Homo sapiens, UniProt P29274). Kind of assay: Adenosine Receptor Binding Assay. The protocol:
(§1) Inhibition binding assays were performed using 0.2 µg of membranes prepared from HEK293 cells infected with BacMam human adenosine A2A receptor or 1.4 µg of membranes prepared from HEK293 cells infected with BacMam human adenosine A1 receptor. Membranes were incubated in 50 mM Tris-HCl (HEK293-hA2A; pH 7.4) or 50 mM Tris-HCl, 100 mM NaCl, 10 mM MgCl2 (CHO-hA1; pH 7.4) in the presence of varying concentrations of test compound and 1 nM [3H]ZM241385 (HEK293-hA2A) or [3H]DPCPX (CHO-hA1) at 25° C. for 1 h. The assay was then terminated by rapid filtration onto GF/B grade Unifilter plates using a TomTec cell harvester, followed by 5 × 0.5 ml washes with ddH2O. […] Bound radioactivity was determined by liquid scintillation counting and inhibition curves were analysed using a four-parameter logistic equation. IC50 values were converted to Ki values with the Cheng-Prusoff equation using a KD value derived from saturation binding studies.

Another assay has as its target T1, Adenosine receptor A1 (Homo sapiens, UniProt P30542).
T1 sequence (P30542 whole entry): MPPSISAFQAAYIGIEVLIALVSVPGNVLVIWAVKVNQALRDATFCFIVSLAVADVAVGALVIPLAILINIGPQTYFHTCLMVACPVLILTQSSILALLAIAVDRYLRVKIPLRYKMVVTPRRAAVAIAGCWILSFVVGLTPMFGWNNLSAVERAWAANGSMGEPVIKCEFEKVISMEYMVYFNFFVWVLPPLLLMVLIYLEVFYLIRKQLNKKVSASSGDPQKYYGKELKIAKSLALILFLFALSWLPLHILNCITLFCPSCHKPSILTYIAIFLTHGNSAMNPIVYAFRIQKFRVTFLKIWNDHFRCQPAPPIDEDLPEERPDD
The assay can be described thus: Adenosine Receptor Binding Assay. The protocol: as §1

The results in this text go back to BindingDB's records for patent US20230271964 (AstraZeneca, 2023).

As a reminder, the Ki is the dissociation constant of the complex between target and ligand, obtained from inhibition or displacement. Read a low Ki as a stronger hold on the target.

Adenosine receptor A2a, sequence (P29274 whole entry): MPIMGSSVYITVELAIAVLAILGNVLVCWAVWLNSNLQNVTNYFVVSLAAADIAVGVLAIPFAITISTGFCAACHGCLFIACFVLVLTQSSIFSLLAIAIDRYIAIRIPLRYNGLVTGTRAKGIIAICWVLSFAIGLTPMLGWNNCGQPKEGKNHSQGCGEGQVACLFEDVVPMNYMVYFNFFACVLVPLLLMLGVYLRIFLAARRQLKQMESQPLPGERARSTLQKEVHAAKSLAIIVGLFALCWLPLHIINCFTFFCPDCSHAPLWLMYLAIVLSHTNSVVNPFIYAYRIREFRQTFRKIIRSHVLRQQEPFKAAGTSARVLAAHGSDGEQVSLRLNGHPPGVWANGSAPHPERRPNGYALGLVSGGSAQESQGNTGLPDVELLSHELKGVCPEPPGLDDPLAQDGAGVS

`Cc1cc(-c2c(-c3ccccc3)nc(N)n3c(=O)n(Cc4ncc[nH]4)nc23)cc(C)n1` [US20230271964, Example 1-24]: the Ki was 0.631 nM on Adenosine receptor A2a and 25.1 nM at Adenosine receptor A1.
